Results as given in the supplement of paper PMC8671470.

What was measured:
Settings in all cases: 72 h
HL-60 [1] = test: area under dose-response curve (viability, 1 nM-10 uM) (fraction (0-1)); higher = more sensitive
Procedure, shortened: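 In 384-well plates, the full library was rescreened in duplicate on HL-60 cells in RPMI 1640 with 10% FBS, at 1–10,000 nM in five tenfold concentrations, for 72 h at 37 °C, 5% CO2. Each run also held DMSO or 100 nM of one of three metabolic inhibitors. Viability was measured by CellTiter-Glo and normalised to DMSO wells and to wells with proteasome inhibitor, present at 10 μM. Any area under the curve comes from four-parameter log-logistic fitting with drc and PharmacoGx.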

KU-812 = test: cell viability (% survival relative to DMSO control, bortezomib = 0%); higher = less cytotoxic
Procedure, shortened: (§1)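 Fifteen myeloid leukaemia cell lines (10 AML, 5 CML) were seeded at a density titrated to the linear growth range. They went into 384-well plates with compounds pre-printed at 1, 10, 100, 1000 or 10000 nM in duplicate. After 72 h at 37 °C with 5% CO2, viability was read by CellTiter-Glo luminescence. Values are percent survival, with vehicle set to 100% and a 10 µM positive control to 0%, averaged over the duplicates.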

HL-60 [2] = test: as above
Procedure, shortened: as §1

KG-1 = test: as above
Procedure, shortened: as §1

[3] = co-treatment: GSK2194069 100 nM
[4] = co-treatment: pictilisib 100 nM

| SMILES | area under dose-response curve (HL-60 [1]; co-treatment: AZD3965 100 nM) | area under dose-response curve (HL-60 [1]; co-treatment: DMSO vehicle) | area under dose-response curve (HL-60 [1]; [3]) | area under dose-response curve (HL-60 [1]; [4]) | cell viability (KU-812; 1 nM) [%] | cell viability (KU-812; 10 nM) [%] | cell viability (KU-812; 100 nM) [%] | cell viability (KU-812; 1000 nM) [%] | cell viability (KU-812; 10000 nM) [%] | cell viability (HL-60 [2]; 1 nM) [%] | cell viability (HL-60 [2]; 10 nM) [%] | cell viability (HL-60 [2]; 100 nM) [%] | cell viability (HL-60 [2]; 1000 nM) [%] | cell viability (HL-60 [2]; 10000 nM) [%] | cell viability (KG-1; 1 nM) [%] | cell viability (KG-1; 10 nM) [%] | cell viability (KG-1; 100 nM) [%] | cell viability (KG-1; 1000 nM) [%] | cell viability (KG-1; 10000 nM) [%] |
| --- | --- | --- | --- | --- | --- | --- | --- | --- | --- | --- | --- | --- | --- | --- | --- | --- | --- | --- | --- |
| Clc1ccc2c(c1Cl)CNCC2 | < 0.0301 | < 0.0301 | < 0.0301 | < 0.0301 | 99.9 | 92.5 | 94.4 | 118 | 87.8 | 101 | 194 | 90.1 | 103 | 95.8 | 94.3 | 98.7 | 98.7 | 101 | 71.9 |
| O=C(O)C(S)=Cc1c[nH]c2ccc(F)cc12 |  |  |  |  | 102 | 103 | 101 | 112 | 102 | 98.3 | 103 | 111 | 66.7 | 90.7 | 101 | 95.1 | 106 | 101 | 66.3 |
| CC(C)Cc1sc(N)nc1-c1ccc(P(=O)(O)O)o1 | < 0.0301 | < 0.0301 | < 0.0301 | < 0.0301 | 96.3 | 94.9 | 98.7 | 90.6 | 88.2 | 56.2 | 90.1 | 72.8 | 105 | 67 | 110 | 90.8 | 102 | 98.8 | 108 |
| Cl.OC[C@H]1NC[C@@H](O)[C@@H](O)[C@@H]1O [1-Deoxymannojirimycin hydrochloride] | < 0.0301 | < 0.0301 | < 0.0301 | < 0.0301 | 101 | 89.2 | 95.7 | 98 | 98.1 | 98.5 | 79.5 | 102 | 124 | 80.5 | 105 | 92.3 | 90.6 | 112 | 94.1 |
| CN(C)c1nc(O)c2[nH]cnc2n1 [2-Dimethylamino-6-hydroxypurine] | < 0.0301 | < 0.0301 | < 0.0301 | < 0.0301 | 93.8 | 96.7 | 91 | 94.2 | 103 | 103 | 81.4 | 79.9 | 110 | 90.1 | 106 | 94.3 | 92.7 | 96.7 | 85.8 |
| O=C(O)c1cc2sccc2[nH]1 [4H-thieno[3,2-b]pyrrole-5-carboxylic acid] | < 0.0301 | < 0.0301 | < 0.0301 | < 0.0301 | 95.9 | 98.3 | 98.9 | 101 | 108 | 117 | 104 | 90.6 | 69.1 | 95.3 | 105 | 106 | 92.7 | 91.8 | 95.2 |
| [N-]=[N+]=CC(=O)CC[C@H](N)C(=O)O [6-Diazo-5-oxo-L-norleucine] | < 0.0301 | < 0.0301 | < 0.0301 | < 0.0301 | 95 | 102 | 110 | 97.3 | 104 | 64.7 | 83.2 | 135 | 97.5 | 106 | 110 | 95.2 | 101 | 117 | 98.9 |
| O=C(O)CC[C@H](NC(=O)c1ccc([N+](=O)[O-])cc1)C(=O)O [(S)-2-(4-Nitrobenzamido)pentanedioic acid] | < 0.0301 | < 0.0301 | < 0.0301 | < 0.0301 | 91.6 | 100 | 98.7 | 96.9 | 89.8 | 78 | 107 | 113 | 83.6 | 93.7 | 95.5 | 93.2 | 97.4 | 98.6 | 99.9 |
| O=C1Nc2ccccc2/C1=C\NCCc1ccc(O)c(O)c1 [AC1NZZMF] | < 0.0301 | < 0.0301 | < 0.0301 | < 0.0301 | 114 | 113 | 108 | 110 | 68.7 | 76.8 | 102 | 82.5 | 96.8 | 86.8 | 112 | 106 | 104 | 95.7 | 78.7 |
| Cc1ccc(S(=O)(=O)NC2c3ccccc3Oc3ccccc32)cc1 [AH-7614] | < 0.0301 | < 0.0301 | < 0.0301 | < 0.0301 | 93.7 | 101 | 99.1 | 97.7 | 106 | 103 | 112 | 87.8 | 94.5 | 86.2 | 100 | 95.9 | 102 | 95.4 | 104 |
| C[C@]12CC[C@H](O)CC1=CC[C@@H]1[C@@H]2CC[C@]2(C)C(c3cccnc3)=CC[C@@H]12 [Abiraterone] | < 0.0301 | < 0.0301 | < 0.0301 | < 0.0301 | 88.8 | 94.8 | 101 | 108 | 101 | 142 | 97.7 | 136 | 80.3 | 124 | 115 | 101 | 94.3 | 101 | 91.8 |
| O=C(COc1ccc(C(=O)c2ccccc2)cc1)NC1CCN(Cc2ccccc2)CC1 [AdipoRon] | < 0.0301 | < 0.0301 | < 0.0301 | < 0.0301 | 94.6 | 114 | 90.9 | 98.3 | 41.5 | 102 | 118 | 81.9 | 111 | 70 | 93.9 | 107 | 104 | 91.9 | 59.6 |
| CCOC(=O)[C@H]1O[C@@H]1C(=O)N[C@@H](CC(C)C)C(=O)NCCC(C)C [Aloxistatin] | < 0.0301 | < 0.0301 | < 0.0301 | < 0.0301 | 94 | 104 | 103 | 105 | 96.5 | 103 | 120 | 108 | 114 | 74 | 99.8 | 104 | 103 | 92.9 | 86.5 |
| N[C@](CCCCB(O)O)(CCN1CCCCC1)C(=O)O [Arginase inhibitor 1] | 0.0306 | 0.0367 | 0.0592 |  | 102 | 84.6 | 85.6 | 108 | 89.4 | 131 | 104 | 73.9 | 106 | 117 | 97.2 | 84.2 | 96.6 | 100 | 92 |
